# Measured values as given in PubChem BioAssay (NCI).
#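 Compound exposure: 48 hours, 5 concentrations, 96-well plates. Here, GI50 denotes the concentration required for 50% inhibition of growth. TGI denotes the concentration required for complete inhibition of growth.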
# How the values were obtained:
# Assay in all cases: NCI tumour cell line growth inhibition, 48 h
# OVCAR-3 ovarian = system: OVCAR-3 ovarian
# SNB-75 CNS = system: SNB-75 CNS
# RPMI-8226 leukemia = system: RPMI-8226 leukemia
# TK-10 renal = system: TK-10 renal
# KM12 colon = system: KM12 colon
# SK-MEL-28 melanoma = system: SK-MEL-28 melanoma
# BT-549 breast = system: BT-549 breast
# HCT-15 colon = system: HCT-15 colon
# HCT-116 colon = system: HCT-116 colon
# A549 NSCLC = system: A549 NSCLC
# SN12C renal = system: SN12C renal
# COLO 205 colon = system: COLO 205 colon
# NCI-H226 lung = system: NCI-H226 lung
# SNB-19 CNS = system: SNB-19 CNS
# SF-268 CNS = system: SF-268 CNS
# CCRF-CEM leukemia = system: CCRF-CEM leukemia
# CAKI-1 renal = system: CAKI-1 renal
# MDA-MB-231 breast = system: MDA-MB-231 breast
# UACC-62 melanoma = system: UACC-62 melanoma
# HT29 colon = system: HT29 colon
# LOX IMVI melanoma = system: LOX IMVI melanoma
# MDA-MB-435 = system: MDA-MB-435
# HL-60(TB) leukemia = system: HL-60(TB) leukemia
# 786-0 renal = system: 786-0 renal
# HCC-2998 colon = system: HCC-2998 colon
# SF-295 CNS = system: SF-295 CNS
# U251 CNS = system: U251 CNS
# HS 578T breast = system: HS 578T breast
# MCF7 breast = system: MCF7 breast
# SW-620 colon = system: SW-620 colon
# EKVX NSCLC = system: EKVX NSCLC
# M14 melanoma = system: M14 melanoma
# HOP-62 NSCLC = system: HOP-62 NSCLC
# NCI-H23 lung = system: NCI-H23 lung
# OVCAR-5 ovarian = system: OVCAR-5 ovarian
# SK-MEL-5 melanoma = system: SK-MEL-5 melanoma
# OVCAR-8 ovarian = system: OVCAR-8 ovarian
# SR leukemia = system: SR leukemia
# NCI-H522 lung = system: NCI-H522 lung
# DU-145 prostate = system: DU-145 prostate
# UO-31 renal = system: UO-31 renal
# A498 renal = system: A498 renal
# UACC-257 melanoma = system: UACC-257 melanoma
# OVCAR-4 ovarian = system: OVCAR-4 ovarian
# RXF 393 renal = system: RXF 393 renal
# T-47D breast = system: T-47D breast
# NCI-H460 lung = system: NCI-H460 lung
# MOLT-4 leukemia = system: MOLT-4 leukemia
# ACHN renal = system: ACHN renal
# PC-3 prostate = system: PC-3 prostate
# NCI/ADR-RES ovarian = system: NCI/ADR-RES ovarian
# IGROV1 ovarian = system: IGROV1 ovarian
# K-562 leukemia = system: K-562 leukemia
# SK-MEL-2 melanoma = system: SK-MEL-2 melanoma
# HOP-92 NSCLC = system: HOP-92 NSCLC
# SF-539 CNS = system: SF-539 CNS
# MALME-3M melanoma = system: MALME-3M melanoma
# SK-OV-3 ovarian = system: SK-OV-3 ovarian
smiles,measurement,setting,value
COc1cc(Nc2cc(O)c3c(=O)cc(-c4ccccc4)oc3c2)cc(OC)c1,GI50,OVCAR-3 ovarian,0.274 µM
same,TGI,OVCAR-3 ovarian,1.64 µM
same,GI50,SNB-75 CNS,0.193 µM
same,TGI,SNB-75 CNS,0.75 µM
same,GI50,RPMI-8226 leukemia,0.471 µM
same,TGI,RPMI-8226 leukemia,> 100 µM
same,GI50,TK-10 renal,4.94 µM
same,TGI,TK-10 renal,46.6 µM
same,GI50,KM12 colon,0.282 µM
same,TGI,KM12 colon,> 39.2 µM
same,GI50,SK-MEL-28 melanoma,2.84 µM
same,TGI,SK-MEL-28 melanoma,> 100 µM
same,GI50,BT-549 breast,0.651 µM
same,TGI,BT-549 breast,> 52.3 µM
same,GI50,HCT-15 colon,0.104 µM
same,TGI,HCT-15 colon,> 100 µM
same,GI50,HCT-116 colon,0.407 µM
same,TGI,HCT-116 colon,> 100 µM
same,GI50,A549 NSCLC,0.788 µM
same,TGI,A549 NSCLC,97.3 µM
same,GI50,SN12C renal,0.736 µM
same,TGI,SN12C renal,75.5 µM
same,GI50,COLO 205 colon,4.68 µM
same,TGI,COLO 205 colon,> 100 µM
same,GI50,NCI-H226 lung,2.57 µM
same,TGI,NCI-H226 lung,48 µM
same,GI50,SNB-19 CNS,0.533 µM
same,TGI,SNB-19 CNS,22.8 µM
same,GI50,SF-268 CNS,0.909 µM
same,TGI,SF-268 CNS,30.9 µM
same,GI50,CCRF-CEM leukemia,0.411 µM
same,TGI,CCRF-CEM leukemia,> 100 µM
same,GI50,CAKI-1 renal,0.335 µM
same,TGI,CAKI-1 renal,16.8 µM
same,GI50,MDA-MB-231 breast,0.964 µM
same,TGI,MDA-MB-231 breast,18.4 µM
same,GI50,UACC-62 melanoma,0.387 µM
same,TGI,UACC-62 melanoma,> 37.4 µM
same,GI50,HT29 colon,3.33 µM
same,TGI,HT29 colon,> 36.9 µM
same,GI50,LOX IMVI melanoma,0.581 µM
same,TGI,LOX IMVI melanoma,> 100 µM
same,GI50,MDA-MB-435,0.147 µM
same,TGI,MDA-MB-435,0.498 µM
same,GI50,HL-60(TB) leukemia,0.355 µM
same,GI50,786-0 renal,1.34 µM
same,TGI,786-0 renal,21.9 µM
same,GI50,HCC-2998 colon,2.31 µM
same,TGI,HCC-2998 colon,> 54 µM
same,GI50,SF-295 CNS,0.389 µM
same,TGI,SF-295 CNS,8.33 µM
same,GI50,U251 CNS,0.484 µM
same,TGI,U251 CNS,18.3 µM
same,GI50,HS 578T breast,0.338 µM
same,GI50,MCF7 breast,0.0357 µM
same,TGI,MCF7 breast,> 100 µM
same,GI50,SW-620 colon,0.377 µM
same,TGI,SW-620 colon,> 100 µM
same,GI50,EKVX NSCLC,0.769 µM
same,TGI,EKVX NSCLC,> 100 µM
same,GI50,M14 melanoma,0.466 µM
same,TGI,M14 melanoma,> 100 µM
same,GI50,HOP-62 NSCLC,0.795 µM
same,TGI,HOP-62 NSCLC,20.9 µM
same,GI50,NCI-H23 lung,0.922 µM
same,TGI,NCI-H23 lung,40 µM
same,GI50,OVCAR-5 ovarian,1.29 µM
same,TGI,OVCAR-5 ovarian,> 47.5 µM
same,GI50,SK-MEL-5 melanoma,0.169 µM
same,TGI,SK-MEL-5 melanoma,9.97 µM
same,GI50,OVCAR-8 ovarian,0.9 µM
same,TGI,OVCAR-8 ovarian,23.9 µM
same,GI50,SR leukemia,0.253 µM
same,TGI,SR leukemia,> 100 µM
same,GI50,NCI-H522 lung,0.203 µM
same,TGI,NCI-H522 lung,4.39 µM
same,GI50,DU-145 prostate,0.476 µM
same,TGI,DU-145 prostate,20.9 µM
same,GI50,UO-31 renal,0.763 µM
same,TGI,UO-31 renal,30.7 µM
same,GI50,A498 renal,0.351 µM
same,TGI,A498 renal,9.03 µM
same,GI50,UACC-257 melanoma,39.1 µM
same,TGI,UACC-257 melanoma,> 100 µM
same,GI50,OVCAR-4 ovarian,8.61 µM
same,TGI,OVCAR-4 ovarian,41.9 µM
same,GI50,RXF 393 renal,0.329 µM
same,TGI,RXF 393 renal,1.83 µM
same,GI50,T-47D breast,0.251 µM
same,TGI,T-47D breast,> 100 µM
same,GI50,NCI-H460 lung,0.39 µM
same,TGI,NCI-H460 lung,> 35.3 µM
same,GI50,MOLT-4 leukemia,0.595 µM
same,TGI,MOLT-4 leukemia,> 100 µM
same,GI50,ACHN renal,0.628 µM
same,TGI,ACHN renal,> 100 µM
same,GI50,PC-3 prostate,0.815 µM
same,TGI,PC-3 prostate,> 52.1 µM
same,GI50,NCI/ADR-RES ovarian,0.437 µM
same,TGI,NCI/ADR-RES ovarian,25 µM
same,GI50,IGROV1 ovarian,0.409 µM
same,TGI,IGROV1 ovarian,32.4 µM
same,GI50,K-562 leukemia,0.311 µM
same,TGI,K-562 leukemia,> 100 µM
same,GI50,SK-MEL-2 melanoma,0.537 µM
same,TGI,SK-MEL-2 melanoma,40.4 µM
same,GI50,HOP-92 NSCLC,0.944 µM
same,TGI,HOP-92 NSCLC,17.7 µM
same,GI50,SF-539 CNS,0.338 µM
same,TGI,SF-539 CNS,1.93 µM
same,GI50,MALME-3M melanoma,0.754 µM
same,TGI,MALME-3M melanoma,> 100 µM
same,GI50,SK-OV-3 ovarian,0.548 µM
same,TGI,SK-OV-3 ovarian,18.6 µM
